Structures can show the parent of a compound that is named as a salt.

For this assay, the target named is CK2A1 (CK2α/β) (Homo sapiens, UniProt P68400). As to the kind of experiment: CK2 kinase assay, CK2A1 (CK2α/β). Type of assay: biochemical. The conditions noted are these: Table A; read-out: CK2A1 (CK2α/β) (IC50).
Chain of CK2A1 (CK2α/β) (P68400 whole entry, species assumed): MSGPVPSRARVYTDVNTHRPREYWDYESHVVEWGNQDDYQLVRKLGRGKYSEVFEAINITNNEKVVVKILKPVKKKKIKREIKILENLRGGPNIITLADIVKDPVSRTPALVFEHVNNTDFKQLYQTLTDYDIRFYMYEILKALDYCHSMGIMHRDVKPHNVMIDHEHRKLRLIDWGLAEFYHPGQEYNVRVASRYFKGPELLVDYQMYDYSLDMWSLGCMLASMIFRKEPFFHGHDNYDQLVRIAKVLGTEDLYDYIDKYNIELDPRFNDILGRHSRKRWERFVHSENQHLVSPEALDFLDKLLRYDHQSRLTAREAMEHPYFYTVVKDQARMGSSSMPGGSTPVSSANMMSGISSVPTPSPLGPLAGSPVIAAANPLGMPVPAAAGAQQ
Chain of CK2A1 (CK2α/β) (P67870 whole entry partner, species assumed): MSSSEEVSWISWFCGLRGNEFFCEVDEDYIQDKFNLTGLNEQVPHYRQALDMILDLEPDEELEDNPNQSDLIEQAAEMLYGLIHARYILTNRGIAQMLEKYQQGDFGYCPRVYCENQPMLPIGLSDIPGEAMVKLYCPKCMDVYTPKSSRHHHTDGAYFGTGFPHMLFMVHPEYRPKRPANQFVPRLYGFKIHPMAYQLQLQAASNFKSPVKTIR
Take `CCNc1nc(Nc2cc(C#N)cc(C3CCN(CCOC)CC3)c2Cl)nn2c(C#N)cnc12` [Example 352, 2-((2-chloro-5-cyano-3-(1-(2-methoxyethyl)-4-piperidinyl)phenyl)amino)-4-(ethylamino)imidazo[2,1-f] [1,2,4]triazine-7-carbonitrile]: the IC50 was 2.73 nM. Turning to `CCNc1nc(Nc2cc(C#N)cc(C3CCN(CC(C)(C)O)CC3)c2Cl)nn2c(C#N)cnc12` [Example 353, 2-((2-chloro-5-cyano-3-(1-(2-hydroxy-2-methylpropyl)-4-piperidinyl)phenyl)amino)-4-(ethylamino)imidazo[2,1-f][1,2,4]triazine-7-carbonitrile], the IC50 was 0.87 nM. Regarding `CCNc1nc(Nc2cc(C#N)cc(C3CCN(C(C)=O)CC3)c2Cl)nn2c(C#N)cnc12` [Example 354, 2-((3-(1-acetyl-4-piperidinyl)-2-chloro-5-cyanophenyl)amino)-4-(ethylamino)imidazo[2,1-f] [1,2,4]triazine-7-carbonitrile], the IC50 turned out to be 0.52 nM. Consider `CCNc1nc(Nc2cc(C#N)cc(C3CCN(C4CN(S(C)(=O)=O)C4)CC3)c2Cl)nn2c(C#N)cnc12` [Example 355, 2-((2-chloro-5-cyano-3-(1-(1-(methylsulfonyl)-3-azetidinyl)-4-piperidinyl)phenyl)amino)-4-(ethylamino)imidazo[2,1-f][1,2,4]triazine-7-carbonitrile], for which the IC50 worked out at 5.23 nM. The result for `CCNc1nc(Nc2cc(C#N)cc(C3CCN(C4CN(C(C)=O)C4)CC3)c2Cl)nn2c(C#N)cnc12` [Example 356, 2-((3-(1-(1-acetyl-3-azetidinyl)-4-piperidinyl)-2-chloro-5-cyanophenyl)amino)-4-(ethylamino)imidazo [2,1-f][1,2,4]triazine-7-carbonitrile] reads 0.72 nM. The result for `CN1CCC(N2CC(c3cc(C#N)cc(Nc4nc(NC5CC5)c5ncc(C#N)n5n4)c3Cl)C2)CC1` [Example 357, 2-((2-chloro-5-cyano-3-(1-(1-methylpiperidin-4-yl)azetidin-3-yl)phenyl)amino)-4-(cyclopropylamino)imidazo[2,1-f][1,2,4]triazine-7-carbonitrile] reads 1.68 nM; that for `N#Cc1cc(Nc2nc(NC3CC3)c3ncc(C#N)n3n2)c(Cl)c(C2CN(C3COC3)C2)c1` [Example 358, 2-((2-chloro-5-cyano-3-(1-(oxetan-3-yl)azetidin-3-yl)phenyl)amino)-4-(cyclopropylamino)imidazo[2,1-f][1,2,4]triazine-7-carbonitrile], 0.87 nM. The result for `CCNc1nc(Nc2cc(C#N)cc(C3CN(C4COC4)C3)c2Cl)nn2c(C#N)cnc12` [Example 359, 2-((2-chloro-5-cyano-3-(1-(oxetan-3-yl)azetidin-3-yl)phenyl)amino)-4-(ethylamino)imidazo[2,1-f][1,2,4]triazine-7-carbonitrile] reads 1.58 nM; that for `CCNc1nc(Nc2cc(C#N)cc(N3CC(N4CCN(C)CC4)C3)c2Cl)nn2c(C#N)cnc12` [Example 360, 2-((2-chloro-5-cyano-3-(3-(4-methylpiperazin-1-yl)azetidin-1-yl)phenyl)amino)-4-(ethylamino)imidazo[2,1-f][1,2,4]triazine-7-carbonitrile], 0.73 nM. In the case of `CCNc1nc(Nc2cc(C#N)cc(N3CCC(NC4COC4)CC3)c2Cl)nn2c(C#N)cnc12` [Example 363, 2-((2-chloro-5-cyano-3-(4-(oxetan-3-ylamino)piperidin-1-yl)phenyl)amino)-4-(ethylamino)imidazo[2,1-f][1,2,4]triazine-7-carbonitrile], the IC50 was 0.78 nM. The result for `CCNc1nc(Nc2cc(C#N)cc(N3CCC(N(C)C4COC4)CC3)c2Cl)nn2c(C#N)cnc12` [Example 365, 2-((2-chloro-5-cyano-3-(4-(methyl(oxetan-3-yl)amino)piperidin-1-yl)phenyl)amino)-4-(ethylamino)imidazo[2,1-f][1,2,4]triazine-7-carbonitrile] reads 3.28 nM; that for `CCNc1nc(Nc2cc(C#N)cc(N3CCC(N(C(=O)OC)C4COC4)CC3)c2Cl)nn2c(C#N)cnc12` [Example 366, methyl (1-(2-chloro-5-cyano-3-((7-cyano-4-(ethylamino)imidazo[2,1-f][1,2,4]triazin-2-yl)amino)phenyl)piperidin-4-yl)(oxetan-3-yl)carbamate], 0.78 nM. Then `CCNc1nc(Nc2cc(C#N)cc(C3CNC3)c2Cl)nn2c(C#N)cnc12` [Example 367, 2-((3-(azetidin-3-yl)-2-chloro-5-cyanophenyl)amino)-4-(ethylamino)imidazo[2,1-f][1,2,4]triazine-7-carbonitrile], with 1.17 nM; and `CCNc1nc(Nc2cc(C#N)cc(C3CN(C[C@H](C)O)C3)c2Cl)nn2c(C#N)cnc12` [Example 368, (S)-2-((2-chloro-5-cyano-3-(1-(2-hydroxypropyl)azetidin-3-yl)phenyl)amino)-4-(ethylamino)imidazo[2,1-f][1,2,4]triazine-7-carbonitrile], with 3.62 nM. `CCNc1nc(Nc2cc(C#N)cc(C3CN(C(=O)CC#N)C3)c2Cl)nn2c(C#N)cnc12` [Example 369, 2-((2-chloro-5-cyano-3-(1-(2-cyanoacetyl)azetidin-3-yl)phenyl)amino)-4-(ethylamino)imidazo[2,1-f][1,2,4]triazine-7-carbonitrile]: the IC50 is 1.58 nM. Then `CCNc1nc(Nc2cc(C#N)cc(N3CC[C@H]4NC(=O)O[C@@H]4C3)c2Cl)nn2c(C#N)cnc12` [Example 375, 2-((2-chloro-5-cyano-3-((3aR,7aR)-2-oxohexahydrooxazolo[5,4-c]pyridin-5(2H)-yl)phenyl)amino)-4-(ethylamino)imidazo[2,1-f][1,2,4]triazine-7-carbonitrile], with 0.43 nM. On to `CCNc1nc(Nc2cc(C#N)cc(N3CC[C@@H](NC(=O)OCCOCCOCCOCCOCCOCCOC)[C@H](O)C3)c2Cl)nn2c(C#N)cnc12` [Example 376, 2,5,8,11,14,17-hexaoxanonadecan-19-yl((3R,4R)-1-(2-chloro-5-cyano-3-((7-cyano-4-(ethylamino)imidazo[2,1-f][1,2,4]triazin-2-yl)amino)phenyl)-3-hydroxypiperidin-4-yl)carbamate], for which the IC50 worked out at 0.83 nM. Then `CCNc1nc(Nc2cc(C#N)cc(N3CC[C@@H](NC[C@H](C)O)[C@H](O)C3)c2Cl)nn2c(C#N)cnc12` [Example 377, 2-((2-chloro-5-cyano-3-((3R,4R)-3-hydroxy-4-(((S)-2-hydroxypropyl)amino)piperidin-1-yl)phenyl)amino)-4-(ethylamino)imidazo[2,1-f][1,2,4]triazine-7-carbonitrile], with 0.61 nM. Then `N#CCC1(N2CCC(c3cc(C#N)cc(Nc4nc(NC5CC5)c5ncc(C#N)n5n4)c3Cl)CC2)COC1` [Example 378, 2-((2-chloro-5-cyano-3-(1-(3-(cyanomethyl)oxetan-3-yl)piperidin-4-yl)phenyl)amino)-4-(cyclopropylamino)imidazo[2,1-f][1,2,4]triazine-7-carbonitrile], with 0.81 nM; and `C=CC1(N2CCC(c3cc(C#N)cc(Nc4nc(NC5CC5)c5ncc(C#N)n5n4)c3Cl)CC2)COC1` [Example 379, 2-((2-chloro-5-cyano-3-(1-(3-vinyloxetan-3-yl)piperidin-4-yl)phenyl)amino)-4-(cyclopropylamino)imidazo[2,1-f][1,2,4]triazine-7-carbonitrile], with 2.61 nM. Regarding `CCNc1nc(Nc2cc(C#N)cc(N3CC[C@@H](NC(=O)OC)[C@H](O)C3)c2F)nn2c(C#N)cnc12` [Example 381, methyl ((3R,4R)-1-(5-cyano-3-((7-cyano-4-(ethylamino)imidazo[2,1-f][1,2,4]triazin-2-yl)amino)-2-fluorophenyl)-3-hydroxypiperidin-4-yl)carbamate], the IC50 amounted to 0.53 nM. `CCNc1nc(Nc2cc(C#N)cc(N3CC(N4CCN(C)CC4)C3)c2F)nn2c(C#N)cnc12` [Example 383, 2-((5-cyano-2-fluoro-3-(3-(4-methylpiperazin-1-yl)azetidin-1-yl)phenyl)amino)-4-(ethylamino)imidazo[2,1-f][1,2,4]triazine-7-carbonitrile]: the IC50 came to 0.77 nM.

As for `N#Cc1cc(Nc2nc(NC3CC3)c3ncc(C#N)n3n2)c(F)c(C2CCN(C3COC3)CC2)c1` [Example 384, 2-((5-cyano-2-fluoro-3-(1-(oxetan-3-yl)piperidin-4-yl)phenyl)amino)-4-(cyclopropylamino)imidazo[2,1-f][1,2,4]triazine-7-carbonitrile], the IC50 was 0.43 nM. Then `COC(=O)Nc1cc(Nc2nc(NC3CC3)c3ncc(C#N)n3n2)c(F)c(N2CCN(C)CC2)c1` [Example 385, methyl (3-((7-cyano-4-(cyclopropylamino)imidazo[2,1-f][1,2,4]triazin-2-yl)amino)-4-fluoro-5-(4-methylpiperazin-1-yl)phenyl)carbamate], with 2.22 nM; and `CCNc1nc(Nc2cc(NC(=O)OC)cc(N3CCN(C)CC3)c2F)nn2c(C#N)cnc12` [Example 386, methyl (3-((7-cyano-4-(ethylamino)imidazo[2,1-f][1,2,4]triazin-2-yl)amino)-4-fluoro-5-(4-methylpiperazin-1-yl)phenyl)carbamate], with 5.79 nM. Then `COC(=O)N[C@H]1CCN(c2cc(C(N)=O)cc(Nc3nc(NC4CC4)c4ncc(C#N)n4n3)c2Cl)C[C@@H]1O` [Example 388, methyl ((3S,4S)-1-(5-carbamoyl-2-chloro-3-((7-cyano-4-(cyclopropylamino)imidazo[2,1-f][1,2,4]triazin-2-yl)amino)phenyl)-3-hydroxypiperidin-4-yl)carbamate], with 5.13 nM; and `C[C@@H](O)Cn1nc(C#N)c2cc(Nc3nc(NC4CC4)c4ncc(C#N)n4n3)ccc21` [Example 393, (R)-2-((3-cyano-1-(2-hydroxypropyl)-1H-indazol-5-yl)amino)-4-(cyclopropylamino)imidazo[2,1-f][1,2,4]triazine-7-carbonitrile, HCl], with 0.43 nM; and `COC(=O)Nc1cc(Nc2nc(NC3CC3)c3ncc(C#N)n3n2)c(Cl)c(C2CCN(C)CC2)c1` [Example 397, Methyl-4-chloro-3-(7-cyano-4-(cyclopropylamino)imidazo[1,2-f][1,2,4]triazin-2-ylamino)-5-(1-methylpiperidin-4-yl)phenylcarbamate], with 1.8 nM.

The values are drawn from US9273057B2 (Bristol-Myers Squibb Company, priority 2012, dated 2016).
